≈ marks a conversion by molar mass, not a printed value. Each block holds one compound with its values, some of them ahead of it.
Experiments:
[1] = biological target: T1, Nuclear receptor subfamily 1 group I member 3 (Homo sapiens, UniProt Q14994); assay: Agonist activity at NR1I3 (unknown origin) at 1 uM
T1 sequence (Q14994 whole entry): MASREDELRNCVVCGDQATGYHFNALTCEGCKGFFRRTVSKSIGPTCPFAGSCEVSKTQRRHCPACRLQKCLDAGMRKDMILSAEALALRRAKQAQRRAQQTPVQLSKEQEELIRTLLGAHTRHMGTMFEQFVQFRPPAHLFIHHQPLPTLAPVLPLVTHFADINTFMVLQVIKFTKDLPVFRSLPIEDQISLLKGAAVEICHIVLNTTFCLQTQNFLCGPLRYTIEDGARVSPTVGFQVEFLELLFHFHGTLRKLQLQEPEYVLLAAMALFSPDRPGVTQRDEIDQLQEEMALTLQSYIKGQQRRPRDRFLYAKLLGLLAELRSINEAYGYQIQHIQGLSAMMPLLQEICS

[2] = Microsomal stability in Sprague-Dawley rat liver microsomes assessed as half life at 10 uM in presence of NADPH by HPLC-UV method; assay type: ADME, Microsome
[3] = system: COS-7; assay: Cytotoxicity against green monkey COS-7 cells assessed as inhibition of cell growth at upto 30 uM measured after 24 hrs CCK-8 method; assay type: toxicity, cell-based; details: chlorocebus aethiops, cos-7, 24 h
[4] = Thermodynamic aqueous solubility of compound at 24 degreeC measured after 24 hrs by SpectraMax M5e plate reader analysis; assay type: physicochemical; details: aqueous medium, read-out: Therm_solubility
[5] = biological target: T1, Nuclear receptor subfamily 1 group I member 3; assay: Antagonist activity at NR1I3 (unknown origin) at 1 uM
[6] = Microsomal stability in Sprague-Dawley rat liver microsomes assessed as compound remaining at 10 uM measured auto 60 mins in presence of NADPH by HPLC-UV method; assay type: ADME, Microsome; details: read-out: Stability
[7] = biological target: T1, Nuclear receptor subfamily 1 group I member 3; assay: Inverse agonist activity at NR1I3 (unknown origin) at 1 uM
[8] = biological target: T2, Retinoic acid receptor RXR-beta (Homo sapiens, UniProt P28702); assay: Agonist activity at full length human RXR beta expressed in HEK293T cells measured after 16 hrs by Dual-glo luciferase assay; assay type: cell-based
T2 sequence (P28702 whole entry): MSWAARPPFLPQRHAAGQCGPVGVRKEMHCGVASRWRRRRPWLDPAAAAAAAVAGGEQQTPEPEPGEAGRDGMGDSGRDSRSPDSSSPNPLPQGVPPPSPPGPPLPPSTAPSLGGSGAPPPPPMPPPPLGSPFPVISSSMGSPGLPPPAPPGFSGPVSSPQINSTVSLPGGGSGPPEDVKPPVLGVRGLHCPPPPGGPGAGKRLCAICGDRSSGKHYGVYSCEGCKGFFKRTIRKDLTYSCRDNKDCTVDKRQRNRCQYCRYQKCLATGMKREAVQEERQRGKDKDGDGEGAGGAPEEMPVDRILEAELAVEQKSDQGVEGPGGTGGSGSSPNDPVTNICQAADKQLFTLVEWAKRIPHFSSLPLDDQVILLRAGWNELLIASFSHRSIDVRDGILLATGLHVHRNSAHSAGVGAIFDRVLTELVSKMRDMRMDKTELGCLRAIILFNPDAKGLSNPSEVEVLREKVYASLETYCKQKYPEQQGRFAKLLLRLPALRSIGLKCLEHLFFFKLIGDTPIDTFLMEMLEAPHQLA

[9] = biological target: T3, Retinoic acid receptor RXR-gamma (Homo sapiens, UniProt P48443); assay: Agonist activity at full length human RXR gamma expressed in HEK293T cells measured after 16 hrs by Dual-glo luciferase assay; assay type: cell-based
T3 sequence (P48443 whole entry): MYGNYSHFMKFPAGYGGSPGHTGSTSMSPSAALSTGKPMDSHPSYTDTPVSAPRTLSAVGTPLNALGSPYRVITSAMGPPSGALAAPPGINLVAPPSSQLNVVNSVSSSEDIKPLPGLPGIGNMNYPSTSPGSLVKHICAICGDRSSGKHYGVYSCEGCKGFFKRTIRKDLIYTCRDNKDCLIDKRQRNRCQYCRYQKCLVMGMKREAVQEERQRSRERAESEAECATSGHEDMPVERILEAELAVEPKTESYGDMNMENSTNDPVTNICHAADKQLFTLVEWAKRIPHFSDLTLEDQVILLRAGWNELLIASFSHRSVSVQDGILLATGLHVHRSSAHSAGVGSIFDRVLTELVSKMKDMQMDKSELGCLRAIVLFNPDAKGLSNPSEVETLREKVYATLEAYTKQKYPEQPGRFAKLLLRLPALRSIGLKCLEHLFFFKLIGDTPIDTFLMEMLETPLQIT

[10] = biological target: T4, Retinoic acid receptor RXR-alpha (Homo sapiens, UniProt P19793)
T4 sequence (P19793 whole entry): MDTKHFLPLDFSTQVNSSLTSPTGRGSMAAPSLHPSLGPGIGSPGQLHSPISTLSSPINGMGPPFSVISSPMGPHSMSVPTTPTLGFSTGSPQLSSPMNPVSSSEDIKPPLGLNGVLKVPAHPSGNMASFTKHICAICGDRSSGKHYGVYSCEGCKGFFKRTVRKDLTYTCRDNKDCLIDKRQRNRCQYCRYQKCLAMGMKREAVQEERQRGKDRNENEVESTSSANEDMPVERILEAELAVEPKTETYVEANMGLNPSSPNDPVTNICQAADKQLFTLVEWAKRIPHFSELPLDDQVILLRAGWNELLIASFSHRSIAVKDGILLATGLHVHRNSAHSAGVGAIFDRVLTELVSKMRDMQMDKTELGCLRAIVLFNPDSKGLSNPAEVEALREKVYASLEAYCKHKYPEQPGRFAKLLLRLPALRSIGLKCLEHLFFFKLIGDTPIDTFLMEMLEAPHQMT
Description: Agonist activity at full length human RXR alpha expressed in HEK293T cells measured after 16 hrs by Dual-glo luciferase assay

Compound: C/C(=C\C(=O)O)c1nc(-c2ccccc2)c(-c2ccccc2)o1
EC50 [8]: 7.4 µM

Compound: C/C(C(=O)O)=C(/C)c1nc(-c2ccccc2)c(-c2ccccc2)o1
EC50 [8]: 1.9 µM

Compound: O=C(O)/C=C/c1nc(-c2ccccc2)c(-c2ccccc2)o1
EC50 [10]: 13 µM
EC50 [8]: 13.1 µM

Continued, in another order:

Activity [1]: Not Active
half-life at 10 µM [2]: > 2 h
solubility thermodynamic at 24 h [4]: 18.3 µM (≈ 8.08 µg/mL)
Activity [5]: Not Active
remaining at 1 h, 10 µM [6]: 79%
Activity [7]: Not Active
Compound: O=C(O)[C@@H]1C[C@H]1c1nc(-c2ccccc2)c(-c2cc(C(F)(F)F)cc(C(F)(F)F)c2)o1 (racemic)
Activity [3]: Non-Toxic

solubility thermodynamic at 24 h [4]: 5.8 µM (≈ 2.48 µg/mL)
Compound: OC[C@@H]1C[C@H]1c1nc(-c2ccccc2)c(-c2cc(C(F)(F)F)cc(C(F)(F)F)c2)o1 (racemic)

EC50 [9]: 0.057 µM
Compound: O=C(O)/C=C/c1nc(-c2ccccc2)c(-c2cc(C(F)(F)F)cc(C(F)(F)F)c2)o1
